Patent US6914045B2, “Glycopeptide antibiotics” (Wyeth Holdings Corporation, priority 2001, dated 2005)
In brackets after ≈: the same amount, converted by molar mass.

What was measured:
Assay in all cases: in vitro antibacterial evaluation, MIC by broth dilution
Assay type in all cases: cell-based
Enterococcus sp. = details: broth dilution, 18 hours at 35° C.
Outline: (§1)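 Broth dilution per NCCLS M7-A2 in Mueller-Hinton II medium, inoculum 5×10^5 CFU/mL, antibiotic range 64-0.06 μg/mL. MIC taken as lowest concentration inhibiting growth; Gram-positive panel includes recent clinical isolates resistant to methicillin, penicillin and/or vancomycin.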

Staphylococcus sp. = details: broth dilution, 18 hours at 35° C.
Outline: as §1

Streptococcus sp. = details: broth dilution, 18 hours at 35° C.
Outline: as §1

Escherichia coli = details: 18 hours at 35° C.
Outline: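 Broth dilution MIC per NCCLS M7-A2 in Mueller-Hinton II medium, inoculum 5×10^5 CFU/mL, antibiotic range 64-0.06 μg/mL. MIC taken as lowest concentration inhibiting growth.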

CCCCCCCN1CC(C(O)C2NC(=O)C(C(O)C3CNC(=N)N3)NC(=O)C(Cc3ccc(OC4OC(CO)C(OC5OC6COC7(OC6C(O)C5O)C5CC6CC(C5)CC7C6)C(O)C4O)cc3)NC(=O)C(C(C)c3ccccc3)NC(=O)CNC(=O)C(CO)NC2=O)N(C2OC(CO)C(O)C(O)C2O)C1=N (stereo not drawn) [Example 83]
MIC Enterococcus avium (GC 4558) (Enterococcus sp.; Enterococcus avium (GC 4558)): 2 µg/mL (≈ 1.31 µM)
MIC Enterococcus faecalis (ATCC 29212) (Enterococcus sp.; Enterococcus faecalis (ATCC 29212)): 4 µg/mL (≈ 2.62 µM)
MIC Enterococcus faecalis (GC 4552) (Enterococcus sp.; Enterococcus faecalis (GC 4552)): 4 µg/mL (≈ 2.62 µM)
MIC Enterococcus faecalis (GC 4553) (Enterococcus sp.; Enterococcus faecalis (GC 4553)): 2 µg/mL (≈ 1.31 µM)
MIC Enterococcus faecalis (GC 4554) (Enterococcus sp.; Enterococcus faecalis (GC 4554)): 4 µg/mL (≈ 2.62 µM)
MIC Enterococcus faecalis (GC 6189) (Enterococcus sp.; Enterococcus faecalis (GC 6189)): 4 µg/mL (≈ 2.62 µM)
MIC Enterococcus faecium (GC 2243) (Enterococcus sp.; Enterococcus faecium (GC 2243)): 2 µg/mL (≈ 1.31 µM)
MIC Enterococcus faecium (GC 4556) (Enterococcus sp.; Enterococcus faecium (GC 4556)): 4 µg/mL (≈ 2.62 µM)
MIC Enterococcus faecium (GC 4557) (Enterococcus sp.; Enterococcus faecium (GC 4557)): 1 µg/mL (≈ 0.655 µM)
MIC Enterococcus avium (GC 4558) (Enterococcus sp.): 2 µg/mL (≈ 1.31 µM)
MIC Enterococcus faecalis (ATCC 29212) (Enterococcus sp.): 4 µg/mL (≈ 2.62 µM)
MIC Enterococcus faecalis (GC 2242) (Enterococcus sp.): 4 µg/mL (≈ 2.62 µM)
MIC Enterococcus faecalis (GC 2691) (Enterococcus sp.): 4 µg/mL (≈ 2.62 µM)
MIC Enterococcus faecalis (GC 3059) (Enterococcus sp.): 4 µg/mL (≈ 2.62 µM)
MIC Enterococcus faecalis (GC 4552) (Enterococcus sp.): 4 µg/mL (≈ 2.62 µM)
MIC Enterococcus faecalis (GC 4553) (Enterococcus sp.): 2 µg/mL (≈ 1.31 µM)
MIC Enterococcus faecalis (GC 4554) (Enterococcus sp.): 4 µg/mL (≈ 2.62 µM)
MIC Enterococcus faecalis (GC 6189) (Enterococcus sp.): 4 µg/mL (≈ 2.62 µM)
MIC Enterococcus faecium (GC 2243) (Enterococcus sp.): 2 µg/mL (≈ 1.31 µM)
MIC Enterococcus faecium (GC 4556) (Enterococcus sp.): 4 µg/mL (≈ 2.62 µM)
MIC Enterococcus faecium (GC 4557) (Enterococcus sp.): 1 µg/mL (≈ 0.655 µM)
MIC Enterococcus faecalis (GC 2242) (Enterococcus sp.; strain GC 2242): 4 µg/mL (≈ 2.62 µM)
MIC Enterococcus faecalis (GC 2691) (Enterococcus sp.; strain GC 2691): 4 µg/mL (≈ 2.62 µM)
MIC Enterococcus faecalis (GC 3059) (Enterococcus sp.; strain GC 3059): 4 µg/mL (≈ 2.62 µM)
MIC Coagulase Negative Staphylococcus (GC 4547) (Staphylococcus sp.): 2 µg/mL (≈ 1.31 µM)
MIC Coagulase Negative Staphylococcus (GC 4548) (Staphylococcus sp.): 1 µg/mL (≈ 0.655 µM)
MIC Coagulase Negative Staphylococcus (GC 4549) (Staphylococcus sp.): 2 µg/mL (≈ 1.31 µM)
MIC Coagulase Negative Staphylococcus (GC 4551) (Staphylococcus sp.): 2 µg/mL (≈ 1.31 µM)
MIC Staphylococcus aureus-SMITH (GC 4543) (Staphylococcus sp.): 2 µg/mL (≈ 1.31 µM)
MIC Staphylococcus haemolyticus (GC 4546) (Staphylococcus sp.): 2 µg/mL (≈ 1.31 µM)
MIC Staphylococcus aureus (ATCC 29213) (Staphylococcus sp.; strain ATCC 29213): 2 µg/mL (≈ 1.31 µM)
MIC Staphylococcus aureus (GC 1131) (Staphylococcus sp.; strain GC 1131): 4 µg/mL (≈ 2.62 µM)
MIC Staphylococcus aureus (GC 3051) (Staphylococcus sp.; strain GC 3051): 4 µg/mL (≈ 2.62 µM)
MIC Staphylococcus aureus (GC 3053) (Staphylococcus sp.; strain GC 3053): 4 µg/mL (≈ 2.62 µM)
MIC Staphylococcus aureus (GC 4541) (Staphylococcus sp.; strain GC 4541): 2 µg/mL (≈ 1.31 µM)
MIC Staphylococcus aureus (GC 4542) (Staphylococcus sp.; strain GC 4542): 4 µg/mL (≈ 2.62 µM)
MIC Staphylococcus aureus-SMITH (GC 4543) (Staphylococcus sp.; strain GC 4543): 2 µg/mL (≈ 1.31 µM)
MIC Staphylococcus aureus (GC 4544) (Staphylococcus sp.; strain GC 4544): 4 µg/mL (≈ 2.62 µM)
MIC Staphylococcus aureus (GC 4545) (Staphylococcus sp.; strain GC 4545): 2 µg/mL (≈ 1.31 µM)
MIC Staphylococcus haemolyticus (GC 4546) (Staphylococcus sp.; strain GC 4546): 2 µg/mL (≈ 1.31 µM)
MIC Coagulase Negative Staphylococcus (GC 4547) (Staphylococcus sp.; strain GC 4547): 2 µg/mL (≈ 1.31 µM)
MIC Coagulase Negative Staphylococcus (GC 4548) (Staphylococcus sp.; strain GC 4548): 1 µg/mL (≈ 0.655 µM)
MIC Coagulase Negative Staphylococcus (GC 4549) (Staphylococcus sp.; strain GC 4549): 2 µg/mL (≈ 1.31 µM)
MIC Coagulase Negative Staphylococcus (GC 4551) (Staphylococcus sp.; strain GC 4551): 2 µg/mL (≈ 1.31 µM)
MIC Streptococcus agalactiae (GC 4564) (Streptococcus sp.): 0.25 µg/mL (≈ 0.164 µM)
MIC Streptococcus pneumoniae (ATCC 6301) (Streptococcus sp.): 0.5 µg/mL (≈ 0.328 µM)
MIC Streptococcus pneumoniae (GC 1894) (Streptococcus sp.): <0.12 µg/mL
MIC Streptococcus pneumoniae (GC 4565) (Streptococcus sp.): 0.25 µg/mL (≈ 0.164 µM)
MIC Streptococcus pyogenes (GC 4563) (Streptococcus sp.): 0.25 µg/mL (≈ 0.164 µM)
MIC Streptococcus pneumoniae (ATCC 6301) (Streptococcus sp.; strain ATCC 6301): 0.5 µg/mL (≈ 0.328 µM)
MIC Streptococcus pneumoniae (GC 1894) (Streptococcus sp.; strain GC 1894): <0.12 µg/mL
MIC Streptococcus pyogenes (GC 4563) (Streptococcus sp.; strain GC 4563): 0.25 µg/mL (≈ 0.164 µM)
MIC Streptococcus agalactiae (GC 4564) (Streptococcus sp.; strain GC 4564): 0.25 µg/mL (≈ 0.164 µM)
MIC Streptococcus pneumoniae (GC 4565) (Streptococcus sp.; strain GC 4565): 0.25 µg/mL (≈ 0.164 µM)
MIC Escherichia coli (ATCC 25922) (Escherichia coli): 64 µg/mL (≈ 41.9 µM)
MIC Escherichia coli (GC 4559) (Escherichia coli): 32 µg/mL (≈ 21 µM)
MIC Escherichia coli (GC 4560) (Escherichia coli): 2 µg/mL (≈ 1.31 µM)
